Assays:
study subjects [1] = assay: Peroral treatment of study subjects with tetrahydrocarbazole compounds: nocturia frequency, urgency to urinate, frequency of emptying (Examples 4-9); assay type: in vivo, human; settings: 50 to 150 mg perorally daily as a single dose, schemes of 6 weeks to 6 months
study subjects [2] = assay: Peroral treatment of study subjects with tetrahydrocarbazole compounds: chemical (hormonal) castration (Examples 4-9); assay type: in vivo, human; settings: 50 to 150 mg perorally daily as a single dose, schemes of 6 weeks to 6 months
Description: In the course of the present invention, the terms “hormone” and “hormonal” within for instance the terms “hormone castration”, “chemical (hormonal) castration” or “hormone withdrawal symptoms” refer to follicle stimulating hormone (FSH), luteinizing hormone (LH) and/or testosterone. Preferably, chemical (hormonal) castration is a testosterone castration and refers to a testosterone blood level of equal or below 1.2 ng/mL, preferably 0.5 ng/mL.
Study subjects are treated with compound (76) with the following doses according to the following administration schemes: • in a 3 month trial, 75 mg or 150 mg compound (76) administered perorally daily as a single dose on day 2-7 of the menstrual cycle • in a 3 months trial, 75 mg, 100 mg or 150 mg compound (76) administered perorally daily as a single dose on day 2-7 of the menstrual cycle followed by a 3 months treatment-free period • in a 6 months trial, 75 mg or 150 mg compound (76) administered perorally daily as a single dose • 50 mg or 150 mg per compound (76) administered daily as a single dose over 42 days (6 weeks)
Study subjects are treated with compound (68) with the following doses according to the following administration schemes: • in a 3 month trial, 75 mg or 150 mg compound (68) administered perorally daily as a single dose on day 2-7 of the menstrual cycle • in a 3 months trial, 75 mg, 100 mg or 150 mg compound (68) administered perorally daily as a single dose on day 2-7 of the menstrual cycle followed by a 3 months treatment-free period • in a 6 months trial, 75 mg or 150 mg compound (68) administered perorally daily as a single dose • 50 mg or 150 mg per compound (68) administered daily as a single dose over 42 days (6 weeks)
Study subjects are treated with compound 36 with the following doses according to the following administration schemes: • in a 3 month trial, 75 mg or 150 mg compound 36 administered perorally daily as a single dose on day 2-7 of the menstrual cycle • in a 3 months trial, 75 mg, 100 mg or 150 mg compound 36 administered perorally daily as a single dose on day 2-7 of the menstrual cycle followed by a 3 months treatment-free period • in a 6 months trial, 75 mg or 150 mg compound 36 administered perorally daily as a single dose • 50 mg or 150 mg per compound 36 administered daily as a single dose over 42 days (6 weeks)
Study subjects are treated with compound 37 with the following doses according to the following administration schemes: • in a 3 month trial, 75 mg or 150 mg compound 37 administered perorally daily as a single dose on day 2-7 of the menstrual cycle • in a 3 months trial, 75 mg, 100 mg or 150 mg compound 37 administered perorally daily as a single dose on day 2-7 of the menstrual cycle followed by a 3 months treatment-free period • in a 6 months trial, 75 mg or 150 mg compound 37 administered perorally daily as a single dose • 50 mg or 150 mg per compound 37 administered daily as a single dose over 42 days (6 weeks)
Study subjects are treated with compound 52 with the following doses according to the following administration schemes: • in a 3 month trial, 75 mg or 150 mg compound 52 administered perorally daily as a single dose on day 2-7 of the menstrual cycle • in a 3 months trial, 75 mg, 100 mg or 150 mg compound 52 administered perorally daily as a single dose on day 2-7 of the menstrual cycle followed by a 3 months treatment-free period • in a 6 months trial, 75 mg or 150 mg compound 52 administered perorally daily as a single dose • 50 mg or 150 mg per compound 52 administered daily as a single dose over 42 days (6 weeks)

[3] = tested on: testosterone blood levels; assay: Median testosterone blood levels / chemical (hormonal) castration; settings: blood level, 15 + 15: 15 mg at week 0 and week 2
Description: Preferably, chemical (hormonal) castration is a testosterone castration and refers to a testosterone blood level of equal or below 1.2 ng/mL, preferably 0.5 ng/mL.
Study subjects were treated with Cetrorelix pamoate with the following doses according to the following administration schemes: • 60 mg Cetrorelix pamaote administered at week 0 and 30 mg Cetrorelix pamaote administered at week 2 (treatment period) followed by up to 5 months of no treatment (treatment-free period) • 60 mg Cetrorelix pamaote administered at week 0 and 60 mg Cetrorelix pamaote administered at week 2 (treatment period) followed by up to 5 months of no treatment (treatment-free period)
Study subjects were treated with Cetrorelix acetate with the following doses according to the following administration schemes: • 5 mg Cetrorelix acetate administered at week 0, 1, 2 and 3 (total monthly dose of 20 mg) (treatment period) followed by up to 4 months of no treatment (treatment-free period) • 10 mg Cetrorelix acetate administered at week 0 and 10 mg Cetrorelix acetate administered at week 2 (treatment period) followed by up to 4 months of no treatment (treatment-free period) • 10 mg Cetrorelix acetate administered at week 0, 1, 2 and 3 (total monthly dose of 40 mg) (treatment period) followed by up to 4 months of no treatment (treatment-free period)
Study subjects were treated with Ozarelix with the following doses according to the following administration schemes: • 15 mg Ozarelix administered at week 0 and 15 mg Ozarelix administered at week 2 (treatment period) followed by up to 4 months of no treatment (treatment-free period)

study subjects [4] = assay: Frequency of emptying: how often the study subjects had to urinate a second time within a 2 hour test period; assay type: in vivo, human; settings: for Frequency of emptying (n-times, mean): 15 + 15: 15 mg at week 0 and week 2
Description: (§1) The results shown are percentage variations from baseline at the beginning of the study (week 0).
The results shown are mean values, how often the study subjects had to urinate a second time.

study subjects [5] = assay: Urgency to urinate: how often the study subjects had difficulties to delay the urination; assay type: in vivo, human; settings: for Urgency to urinate (n-times, mean): 15 + 15: 15 mg at week 0 and week 2
Description: The results shown are mean values, how often the study subjects had difficulties.

study subjects [6] = assay: Nocturia: how often the study subjects got up during the night in order to urinate; assay type: in vivo, human; settings: for Nocturia (n-times, mean): 15 + 15: 15 mg at week 0 and week 2
Description: as §1
The results shown are mean values, how often the study subjects had to get up.

[7] = 15+15 mg scheme, largest difference, n-times mean

Molecule: CCC(C)[C@H](NC(=O)Cc1ccccc1F)C(=O)N[C@]1(C(=O)N[C@H](C(=S)NCC2CCOCC2)C(C)CC)CCc2[nH]c3c(C(F)(F)F)cccc3c2C1 (stereo partly drawn) [Compound 52, (R)-3-{(S)-2-[2-(2-Fluoro-phenyl)-acetylamino]-3-methyl-pentanoylamino}-8-trifluoromethyl-2,3,4,9-tetrahydro-1H-carbazole-3-carboxylic acid {(S)-2-methyl-1-[K(tetrahydro-pyran-4-ylmethyl)-thiocarbamoyl]-butyl}-amide]
- nocturia frequency, urgency to urinate and/or frequency of emptying compared to placebo (study subjects [1]): decrease
- chemical (hormonal) castration (study subjects [2]): successfully prevented

Molecule: CCC(C)[C@H](NC(=O)Cc1ccccc1F)C(=O)N[C@]1(C(=O)N[C@H](C(N)=S)C(C)CC)CCc2[nH]c3c(C(F)(F)F)cccc3c2C1 (stereo partly drawn) [compound (76), (R)-3-{(S)-2-[2-(2-fluorophenyl)acetylamino]-3-methyl-pentanoylamino}-8-trifluoromethyl-2,3,4,9-tetrahydro-1H-carbazole-3-carboxylic acid ((S)-2-methyl-1-thiocarbamoylbutyl)amide]
- nocturia frequency, urgency to urinate and/or frequency of emptying compared to placebo (study subjects [1]): decrease
- chemical (hormonal) castration (study subjects [2]): successfully prevented

Molecule: CCC(C)[C@H](NC(=O)Cc1ccccc1F)C(=O)N[C@]1(C(=O)N[C@H](C(=O)NNc2ccccc2)C(C)CC)CCc2[nH]c3c(C(F)(F)F)cccc3c2C1 (stereo partly drawn) [Compound 144, (R)-3-{(S)-2-[2-(2-Fluoro-phenyl)-acetylamino]-3-methyl-pentanoylamino}-8-trifluoromethyl-2,3,4,9-tetrahydro-1H-carbazole-3-carboxylic acid [(S)-2-methyl-1-(N′-phenyl-hydrazinocarbonyl)-butyl]-amide]
- nocturia frequency, urgency to urinate and/or frequency of emptying compared to placebo (study subjects [1]): decrease
- chemical (hormonal) castration (study subjects [2]): successfully prevented

Molecule: Ozarelix
- Testosterone [ng/mL] (median) ([3]; Week 0): 3.57 ng/mL
- Testosterone [ng/mL] (median) ([3]; Week 4): 2.97 ng/mL
- Testosterone [ng/mL] (median) ([3]; Week 8): 4.19 ng/mL
- Testosterone [ng/mL] (median) ([3]; Week 12): 4.11 ng/mL
- Testosterone [ng/mL] (median) ([3]; Week 16): 3.82 ng/mL
- Testosterone [ng/mL] (median) ([3]; Week 20): 3.92 ng/mL
- Testosterone [ng/mL] (median) ([3]; Week 24): 3.86 ng/mL
- decrease in frequency of emptying compared to placebo (study subjects [4]; [7]): up to 0.30
- Frequency of emptying (n-times, mean) (study subjects [4]; Week 4): 2.48 n-times
- Frequency of emptying (n-times, mean) (study subjects [4]; Week 8): 2.11 n-times
- Frequency of emptying (n-times, mean) (study subjects [4]; Week 12): 1.82 n-times
- Frequency of emptying (n-times, mean) (study subjects [4]; Week 16): 1.75 n-times
- Frequency of emptying (n-times, mean) (study subjects [4]; Week 20): 1.71 n-times
- Frequency of emptying (n-times, mean) (study subjects [4]; Week 24): 1.75 n-times
- decrease in urgency to urinate compared to placebo (study subjects [5]; [7]): up to 0.74
- Urgency to urinate (n-times, mean) (study subjects [5]; Week 0): 2.80 n-times
- Urgency to urinate (n-times, mean) (study subjects [5]; Week 4): 2.17 n-times
- Urgency to urinate (n-times, mean) (study subjects [5]; Week 8): 1.89 n-times
- Urgency to urinate (n-times, mean) (study subjects [5]; Week 12): 1.75 n-times
- Urgency to urinate (n-times, mean) (study subjects [5]; Week 16): 1.39 n-times
- Urgency to urinate (n-times, mean) (study subjects [5]; Week 20): 1.71 n-times
- Urgency to urinate (n-times, mean) (study subjects [5]; Week 24): 1.89 n-times
- decrease in nocturia frequency compared to placebo (study subjects [6]; [7]): up to 0.76
- Nocturia (n-times, mean) (study subjects [6]; Week 0): 2.73 n-times
- Nocturia (n-times, mean) (study subjects [6]; Week 4): 1.83 n-times
- Nocturia (n-times, mean) (study subjects [6]; Week 8): 1.43 n-times
- Nocturia (n-times, mean) (study subjects [6]; Week 12): 1.54 n-times
- Nocturia (n-times, mean) (study subjects [6]; Week 16): 1.54 n-times
- Nocturia (n-times, mean) (study subjects [6]; Week 20): 1.50 n-times
- Nocturia (n-times, mean) (study subjects [6]; Week 24): 1.54 n-times

Molecule: CCC(C)[C@H](NC(=O)Cc1ccccc1F)C(=O)N[C@]1(C(=O)N[C@H](C(=S)NCN2CCOCC2)C(C)CC)CCc2[nH]c3c(C(F)(F)F)cccc3c2C1 (stereo partly drawn) [Compound 37, (R)-3-{(S)-2-[2-(2-Fluoro-phenyl)-acetylamino]-3-methyl-pentanoylamino}-8-trifluoromethyl-2,3,4,9-tetrahydro-1H-carbazole-3-carboxylic acid {(S)-2-methyl-1-[(morpholin-4-ylmethyl)-thiocarbamoyl]-butyl}-amide]
- nocturia frequency, urgency to urinate and/or frequency of emptying compared to placebo (study subjects [1]): decrease
- chemical (hormonal) castration (study subjects [2]): successfully prevented

Molecule: CCC(C)[C@H](NC(=O)Cc1ccccc1F)C(=O)N[C@]1(C(=O)N[C@H](C(N)=S)C(C)CC)CCc2[nH]c3c(Cl)cc(F)cc3c2C1 (stereo partly drawn) [compound (68), (R)-8-chloro-6-fluoro-3-{(S)-2-[2-(2-fluorophenyl)acetylamino]-3-methyl-pentanoylamino}-2,3,4,9-tetrahydro-1H-carbazole-3-carboxylic acid ((S)-2-methyl-1-thiocarbamoylbutyl)amide]
- nocturia frequency, urgency to urinate and/or frequency of emptying compared to placebo (study subjects [1]): decrease
- chemical (hormonal) castration (study subjects [2]): successfully prevented

Molecule: CCC(C)[C@H](NC(=O)Cc1ccccc1F)C(=O)N[C@]1(C(=O)N[C@H](C(=O)NCN2CCOCC2)C(C)CC)CCc2[nH]c3c(C(F)(F)F)cccc3c2C1 (stereo partly drawn) [Compound 36, (R)-3-{(S)-2-[2-(2-Fluoro-phenyl)-acetylamino]-3-methyl-pentanoylamino}-8-trifluoromethyl-2,3,4,9-tetrahydro-1H-carbazole-3-carboxylic acid {(S)-2-methyl-1-[(morpholin-4-ylmethyl)-carbamoyl]-butyl}-amide]
- nocturia frequency, urgency to urinate and/or frequency of emptying compared to placebo (study subjects [1]): decrease
- chemical (hormonal) castration (study subjects [2]): successfully prevented

— patent publication US20090075937A1, “LHRH ANTAGONISTS FOR THE TREATMENT OF LOWER URINARY TRACT SYMPTOMS” (AETERNA ZENTARIS GmbH, priority 2007, published 2009)
